Reference: publication PMC11130353, “Using host-mimicking conditions and a murine cutaneous abscess model to identify synergistic antibiotic combinations effective against Pseudomonas aeruginosa” (Frontiers in Cellular and Infection Microbiology, 2024)
≈ marks a conversion by molar mass, not a printed value. Read-outs that look alike come from different tables or passages of the source.

How the values were obtained:
P. aeruginosa LESB58 [1] = assay: microbe, parasite or virus in culture; assay type: cell-based, Pseudomonas aeruginosa; details: for MIC: Pseudomonas aeruginosa
P. aeruginosa PAO1 = assay: Minimum inhibitory concentration, broth microdilution; assay type: cell-based, Pseudomonas aeruginosa; details: for MIC: Pseudomonas aeruginosa, PAO1
P. aeruginosa LESB58 [2] = assay: Minimum bactericidal concentration; assay type: cell-based; details: Pseudomonas aeruginosa
Description: For susceptibility testing under standard conditions, bacteria were cultured in Muller Hinton Broth MHB (Fort Richards Laboratories). Host mimicking conditions in vitro were simulated using tissue culture medium (TCM) consisting of Dulbecco’s modified Eagle medium (DMEM; Gibco #11965) supplemented with FBS (Moregate Biotech) (5% v/v) and glucose (1% w/v). Further susceptibility testing was also conducted in MHB supplemented with FBS (5% v/v) and DMEM supplemented with glucose (1% w/v) and MHB (10% v/v).
The minimum bactericidal concentration (MBC) was determined by spotting 5 μL from wells of the MIC plate at or above the MIC onto antibiotic free dYT agar. Plates were incubated at 37°C for another 22-24 hours. The MBC was recorded as the lowest antibiotic concentration with no visible growth on agar plates and the median value reported.

[3] = female, Swiss Webster, mouse, in vivo, sc, 1 day
P. aeruginosa LESB58 [4] = assay: Murine high density subcutaneous skin abscess model; assay type: in vivo, Pseudomonas aeruginosa; details: day 3; for Area of dermoncecrosis, Mean: female Swiss Webster mice
[5] = LESB58, TCM (DMEM + 1% Glucose + 10% MHB)
[6] = Colistin, tigecycline and tobramycin groups, compared to the vehicle control

CC(C)(O/N=C(\C(=O)N[C@@H]1C(=O)N2C(C(=O)[O-])=C(C[n+]3ccccc3)CS[C@H]12)c1csc(N)n1)C(=O)O [CAZ, ceftazidime]
Fold increase MIC of CAZ or CZA (P. aeruginosa LESB58 [1]; MHB + 5% FBS compared to MHB): 8
Fold increase MIC of CAZ or CZA (P. aeruginosa LESB58 [1]; MHB + 5% FBS compared to MHB, listed as ceftazidime): eight
Fold change TCM vs MHB (MIC) (P. aeruginosa LESB58 [1]; MIC in TCM vs MIC in MHB): 4
MIC (P. aeruginosa LESB58 [1]; LESB58, MHB + 5% FBS): 250 µg/mL
MIC (P. aeruginosa LESB58 [1]; [5]): 62.5 µg/mL
MIC (P. aeruginosa LESB58 [1]; LESB58, read-out: MIC in MHB, MHB, 20-24 h): 31.2 µg/mL (≈ 57.2 µM)
MIC (P. aeruginosa LESB58 [1]; LESB58, read-out: MIC in TCM, TCM (DMEM + 1% glucose + 5% FBS), 20-24 h): 125 µg/mL
Fold increase MIC of CAZ or CZA (P. aeruginosa LESB58 [1]; TCM (DMEM + 1% Glucose + 10% MHB) compared to MHB): 2
Fold increase MIC of CAZ or CZA (P. aeruginosa LESB58 [1]; TCM (DMEM + 1% Glucose + 10% MHB) compared to MHB, listed as ceftazidime): two
Fold increase MIC of CAZ or CZA (P. aeruginosa LESB58 [1]; TCM (DMEM + 1% glucose + 5% FBS) compared to MHB): 4
Fold increase MIC of CAZ or CZA (P. aeruginosa LESB58 [1]; TCM (DMEM + 1% glucose + 5% FBS) compared to MHB, listed as ceftazidime): four
Fold change TCM vs MHB (MIC) (P. aeruginosa PAO1; MIC in TCM vs MIC in MHB): 8
MIC (P. aeruginosa PAO1; read-out: MIC in MHB): 3.13 µg/mL (≈ 5.73 µM)
MIC (P. aeruginosa PAO1; read-out: MIC in TCM): 25 µg/mL (≈ 45.7 µM)
MBC (P. aeruginosa LESB58 [2]; LESB58, MHB): > 500 µg/mL
MBC (P. aeruginosa LESB58 [2]; LESB58, MHB + 5% FBS): > 500 µg/mL
MBC (P. aeruginosa LESB58 [2]; [5]): 500 µg/mL
MBC (P. aeruginosa LESB58 [2]; LESB58, TCM (DMEM + 1% glucose + 5% FBS)): > 500 µg/mL
Highest tolerated dose tested [3]: 50 mg/mL
Toxic (visible skin irritation, inflammation, blood vessels, swelling) [3]: 100 mg/mL
CFU per abscess, Fold change (P. aeruginosa LESB58 [4]; Azithromycin group, compared to the vehicle control): -1.4
CFU per abscess, Geometric mean (P. aeruginosa LESB58 [4]; Azithromycin group, CAZ or CZA 50 mg/mL, AZM 6.25 mg/mL): 2.6 × 10^8 CFU per abscess
Area of dermoncecrosis, Mean (P. aeruginosa LESB58 [4]; Azithromycin group, 50 μL s.c. into infected area 1 h after infection, CAZ or CZA 50 mg/mL, AZM 6.25 mg/mL, vehicle citric acid in saline): 107.3 mm^2
Area of dermoncecrosis, Mean (P. aeruginosa LESB58 [4]; Colistin, tigecycline and tobramycin groups (shared vehicle, CAZ and CZA mice), 50 μL s.c. 1 h after infection, CAZ or CZA 50, CST 1.25, TGC 2.5, TOB 2 mg/mL, vehicle 0.9% saline): 85.3 mm^2
Area of dermoncecrosis, % reduction (P. aeruginosa LESB58 [4]; [6]): 9.2%
CFU per abscess, Fold change (P. aeruginosa LESB58 [4]; [6]): -1.8
CFU per abscess, Geometric mean (P. aeruginosa LESB58 [4]; Colistin, tigecycline and tobramycin groups): 1.3 × 10^8 CFU per abscess
